Test results published in PubChem BioAssay AID2060340 (Molecular Pharmacology Branch, DTP, NCI, 2025).

System: 349418-098-R-PDC spheroids, viability, % test/control
Assay: Anticancer human tumor 349418-098-R-PDC patient-derived lung adenocarcinoma cell line growth inhibition [IpAb]
Conditions: spheroids with HUVEC and MSC; for IC50: curve of first compound; for viability, T/C: stronger effect = lower value
In short: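 Multi-cell spheroids of 60% tumour cells, 25% HUVEC and 15% MSC in ultra-low-attachment U-bottom wells, treated with agents combined with ipatasertib or abemaciclib. Half-log ranges top out near clinical Cmax, or 10 microM when Cmax is unknown.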
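Also: spheroids exposed to compounds for 7 days.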

For `Cn1ncnc1[C@H]1c2n[nH]c(=O)c3cc(F)cc(c23)N[C@@H]1c1ccc(F)cc1` + CCN1CCN(Cc2ccc(Nc3ncc(F)c(-c4cc(F)c5nc(C)n(C(C)C)c5c4)n3)nc2)CC1, the IC50 (second compound 0.01 µM) was 54.1 nM, the IC50 (second compound 0.0316 µM) was < 0.316 nM and the IC50 (second compound 0.1 µM) was < 0.316 nM. For the same compound, the IC50 (second compound 0.316 µM) was < 0.316 nM, the IC50 (second compound 1 µM) was < 0.316 nM and the viability, T/C (second compound 0.01 µM, first compound 0.000316 µM) was 70.5%. The viability, T/C (second compound 0.01 µM, first compound 0.001 µM) was 67.8%, the viability, T/C (second compound 0.01 µM, first compound 0.00316 µM) was 73.1% and the viability, T/C (second compound 0.01 µM, first compound 0.01 µM) was 64%. The viability, T/C (second compound 0.01 µM, first compound 0.0316 µM) was 55.2%, the viability, T/C (second compound 0.01 µM, first compound 0.1 µM) was 44.5% and the viability, T/C (second compound 0.0316 µM, first compound 0.000316 µM) was 38.7%. For the same compound, the viability, T/C (second compound 0.0316 µM, first compound 0.001 µM) was 50.5%, the viability, T/C (second compound 0.0316 µM, first compound 0.00316 µM) was 52.7% and the viability, T/C (second compound 0.0316 µM, first compound 0.01 µM) was 36%. The viability, T/C (second compound 0.0316 µM, first compound 0.0316 µM) was 36.5%, the viability, T/C (second compound 0.0316 µM, first compound 0.1 µM) was 25.2% and the viability, T/C (second compound 0.1 µM, first compound 0.000316 µM) was 28.1%. The viability, T/C (second compound 0.1 µM, first compound 0.001 µM) was 22.9%, the viability, T/C (second compound 0.1 µM, first compound 0.00316 µM) was 23.9% and the viability, T/C (second compound 0.1 µM, first compound 0.01 µM) was 23.2%. It also gave a viability, T/C (second compound 0.1 µM, first compound 0.0316 µM) of 17.5%, a viability, T/C (second compound 0.1 µM, first compound 0.1 µM) of 16.4% and a viability, T/C (second compound 0.316 µM, first compound 0.000316 µM) of 14.6%. The viability, T/C (second compound 0.316 µM, first compound 0.001 µM) was 19.8%, the viability, T/C (second compound 0.316 µM, first compound 0.00316 µM) was 16.2% and the viability, T/C (second compound 0.316 µM, first compound 0.01 µM) was 17.8%. The viability, T/C (second compound 0.316 µM, first compound 0.0316 µM) was 16.9%, the viability, T/C (second compound 0.316 µM, first compound 0.1 µM) was 13.1% and the viability, T/C (second compound 1 µM, first compound 0.000316 µM) was 16.2%. The viability, T/C (second compound 1 µM, first compound 0.001 µM) was 17.6%, the viability, T/C (second compound 1 µM, first compound 0.00316 µM) was 16.2% and the viability, T/C (second compound 1 µM, first compound 0.01 µM) was 13%. It also gave a viability, T/C (second compound 1 µM, first compound 0.0316 µM) of 14.9% and a viability, T/C (second compound 1 µM, first compound 0.1 µM) of 12.8%.
